ChEMBL document CHEMBL1201862, “PubChem BioAssay data set” (2004)
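1) Cells in 96-well plates. 2) Compound, 48 h, 5 concentrations. 3) Linear interpolation between surrounding doses. 4) Unreached endpoint = highest concentration. GI50 is the concentration that inhibits growth by half.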 The source made the active and inactive calls. No stated cut-off is given here; in the data, active = GI50 up to about 1.1 µM and inactive = higher.

Key:
Experiment in all cases: NCI anticancer screen, dose series, 48 h
786-0 = system: 786-0
A498 = system: A498
A549 = system: A549
ACHN = system: ACHN
BT-549 = system: BT-549
CAKI-1 = system: CAKI-1
CCRF-CEM = system: CCRF-CEM
COLO 205 = system: COLO 205
DU-145 = system: DU-145
EKVX = system: EKVX
HCC 2998 = system: HCC 2998
HCT-116 = system: HCT-116
HCT-15 = system: HCT-15
HL-60 = system: HL-60
HOP-62 = system: HOP-62
HOP-92 = system: HOP-92
HT-29 = system: HT-29
Hs-578T = system: Hs-578T
IGROV-1 = system: IGROV-1
K562 = system: K562
KM12 = system: KM12
LOX IMVI = system: LOX IMVI
M14 = system: M14
MCF7 = system: MCF7
MDA-MB-231 = system: MDA-MB-231
MDA-MB-435 = system: MDA-MB-435
MDA-N = system: MDA-N
MOLT-4 = system: MOLT-4
Malme-3M = system: Malme-3M
NCI-H23 = system: NCI-H23
NCI-H460 = system: NCI-H460
NCI-H522 = system: NCI-H522
NCI/ADR-RES = system: NCI/ADR-RES
OVCAR-3 = system: OVCAR-3
OVCAR-4 = system: OVCAR-4
OVCAR-5 = system: OVCAR-5
OVCAR-8 = system: OVCAR-8
PC-3 = system: PC-3
RXF 393 = system: RXF 393
SF-268 = system: SF-268
SF-295 = system: SF-295
SF-539 = system: SF-539
SK-MEL-28 = system: SK-MEL-28
SK-MEL-2 = system: SK-MEL-2
SK-MEL-5 = system: SK-MEL-5
SK-OV-3 = system: SK-OV-3
SN12C = system: SN12C
SNB-19 = system: SNB-19
SNB-75 = system: SNB-75
SR = system: SR
SW-620 = system: SW-620
T47D = system: T47D
TK-10 = system: TK-10
U-251 = system: U-251
UACC-257 = system: UACC-257
UACC-62 = system: UACC-62
UO-31 = system: UO-31
NCI-H226 = system: NCI-H226

SMILES: CCOP(=O)(OCC)Oc1c(OC)c2[nH]c(C(=O)OC)cc2c2c(C(=O)O)c[nH]c12
- GI50 (786-0): > 100 µM (inactive)
- GI50 (A498): > 100 µM (inactive)
- GI50 (A549): > 100 µM (inactive)
- GI50 (ACHN): > 100 µM (inactive)
- GI50 (BT-549): > 100 µM (inactive)
- GI50 (CAKI-1): > 100 µM (inactive)
- GI50 (CCRF-CEM): > 100 µM (inactive)
- GI50 (COLO 205): > 100 µM (inactive)
- GI50 (DU-145): > 100 µM (inactive)
- GI50 (EKVX): > 100 µM (inactive)
- GI50 (HCC 2998): > 100 µM (inactive)
- GI50 (HCT-116): > 100 µM (inactive)
- GI50 (HCT-15): > 100 µM
- GI50 (HL-60): > 100 µM (inactive)
- GI50 (HOP-62): > 100 µM (inactive)
- GI50 (HOP-92): > 100 µM (inactive)
- GI50 (HT-29): > 100 µM (inactive)
- GI50 (Hs-578T): > 100 µM (inactive)
- GI50 (IGROV-1): > 100 µM (inactive)
- GI50 (K562): > 100 µM (inactive)
- GI50 (KM12): 28.6 µM (inactive)
- GI50 (LOX IMVI): > 100 µM (inactive)
- GI50 (M14): > 100 µM (inactive)
- GI50 (MCF7): > 100 µM (inactive)
- GI50 (MDA-MB-231): > 100 µM (inactive)
- GI50 (MDA-MB-435): > 100 µM (inactive)
- GI50 (MDA-N): > 100 µM (inactive)
- GI50 (MOLT-4): > 100 µM (inactive)
- GI50 (Malme-3M): > 100 µM (inactive)
- GI50 (NCI-H23): > 100 µM (inactive)
- GI50 (NCI-H460): > 100 µM (inactive)
- GI50 (NCI-H522): > 100 µM (inactive)
- GI50 (NCI/ADR-RES): > 100 µM (inactive)
- GI50 (OVCAR-3): > 100 µM (inactive)
- GI50 (OVCAR-4): > 100 µM (inactive)
- GI50 (OVCAR-5): > 100 µM (inactive)
- GI50 (OVCAR-8): > 100 µM (inactive)
- GI50 (PC-3): > 100 µM (inactive)
- GI50 (RXF 393): > 100 µM (inactive)
- GI50 (SF-268): > 100 µM (inactive)
- GI50 (SF-295): > 100 µM (inactive)
- GI50 (SF-539): > 100 µM (inactive)
- GI50 (SK-MEL-28): > 100 µM (inactive)
- GI50 (SK-MEL-2): > 100 µM (inactive)
- GI50 (SK-MEL-5): > 100 µM (inactive)
- GI50 (SK-OV-3): > 100 µM (inactive)
- GI50 (SN12C): > 100 µM (inactive)
- GI50 (SNB-19): > 100 µM (inactive)
- GI50 (SNB-75): > 100 µM (inactive)
- GI50 (SR): > 100 µM (inactive)
- GI50 (SW-620): > 100 µM (inactive)
- GI50 (T47D): > 100 µM (inactive)
- GI50 (TK-10): > 100 µM (inactive)
- GI50 (U-251): > 100 µM (inactive)
- GI50 (UACC-257): > 100 µM (inactive)
- GI50 (UACC-62): > 100 µM (inactive)
- GI50 (UO-31): > 100 µM (inactive)

SMILES: COc1cc2ccc1OCc1cccc(n1)COc1ccc(cc1OC)/C=N\c1ccc(cc1)-c1ccc(cc1)/N=C\2
- GI50 (786-0): > 100 µM (inactive)
- GI50 (A498): > 100 µM (inactive)
- GI50 (A549): > 100 µM (inactive)
- GI50 (ACHN): > 100 µM (inactive)
- GI50 (BT-549): > 100 µM (inactive)
- GI50 (CAKI-1): > 100 µM (inactive)
- GI50 (CCRF-CEM): > 100 µM (inactive)
- GI50 (COLO 205): > 100 µM (inactive)
- GI50 (DU-145): > 100 µM (inactive)
- GI50 (EKVX): > 100 µM (inactive)
- GI50 (HCC 2998): > 100 µM (inactive)
- GI50 (HCT-116): > 100 µM (inactive)
- GI50 (HCT-15): > 100 µM
- GI50 (HL-60): > 100 µM (inactive)
- GI50 (HOP-62): 78 µM (inactive)
- GI50 (HOP-92): > 100 µM (inactive)
- GI50 (HT-29): > 100 µM (inactive)
- GI50 (Hs-578T): > 100 µM (inactive)
- GI50 (IGROV-1): > 100 µM (inactive)
- GI50 (K562): > 100 µM (inactive)
- GI50 (KM12): > 100 µM (inactive)
- GI50 (LOX IMVI): > 100 µM (inactive)
- GI50 (M14): > 100 µM (inactive)
- GI50 (MCF7): > 100 µM (inactive)
- GI50 (MDA-MB-231): > 100 µM (inactive)
- GI50 (MDA-MB-435): > 100 µM (inactive)
- GI50 (MDA-N): > 100 µM (inactive)
- GI50 (MOLT-4): > 100 µM (inactive)
- GI50 (Malme-3M): > 100 µM (inactive)
- GI50 (NCI-H226): > 100 µM (inactive)
- GI50 (NCI-H23): > 100 µM (inactive)
- GI50 (NCI-H460): > 100 µM (inactive)
- GI50 (NCI-H522): > 100 µM (inactive)
- GI50 (NCI/ADR-RES): > 100 µM (inactive)
- GI50 (OVCAR-3): > 100 µM (inactive)
- GI50 (OVCAR-4): > 100 µM (inactive)
- GI50 (OVCAR-8): > 100 µM (inactive)
- GI50 (PC-3): > 100 µM (inactive)
- GI50 (RXF 393): 71.6 µM (inactive)
- GI50 (SF-268): > 100 µM (inactive)
- GI50 (SF-295): > 100 µM (inactive)
- GI50 (SF-539): > 100 µM (inactive)
- GI50 (SK-MEL-2): > 100 µM (inactive)
- GI50 (SK-MEL-5): > 100 µM (inactive)
- GI50 (SK-OV-3): > 100 µM (inactive)
- GI50 (SN12C): > 100 µM (inactive)
- GI50 (SNB-19): > 100 µM (inactive)
- GI50 (SNB-75): > 100 µM (inactive)
- GI50 (SR): > 100 µM (inactive)
- GI50 (SW-620): > 100 µM (inactive)
- GI50 (T47D): > 100 µM (inactive)
- GI50 (TK-10): > 100 µM (inactive)
- GI50 (U-251): > 100 µM (inactive)
- GI50 (UACC-257): > 100 µM (inactive)
- GI50 (UACC-62): > 100 µM (inactive)
- GI50 (UO-31): > 100 µM (inactive)
